Test results taken from paper PMC9030691, “Toxicokinetics of β-Amanitin in Mice and In Vitro Drug–Drug Interaction Potential” (Pharmaceutics, 2022).
Entries after “also recorded” stand apart in the source; their conditions may differ.

Assays:
OAT3 = target: T1, OAT3 (Homo sapiens, UniProt Q8TCC7); experiment: OAT3 transport inhibition in HEK293-OAT3 cells; type: in vitro ADME; parameters: host or cells: HEK293 (TransportoCells); settings: 0.1 μM probe substrate, HBSS pH 7.4, β-amanitin 0.01–250 μM (methods), n = 3, read-out: IC50, OAT3-mediated [3H]estrone-3-sulfate uptake
T1 sequence (Q8TCC7 1-542): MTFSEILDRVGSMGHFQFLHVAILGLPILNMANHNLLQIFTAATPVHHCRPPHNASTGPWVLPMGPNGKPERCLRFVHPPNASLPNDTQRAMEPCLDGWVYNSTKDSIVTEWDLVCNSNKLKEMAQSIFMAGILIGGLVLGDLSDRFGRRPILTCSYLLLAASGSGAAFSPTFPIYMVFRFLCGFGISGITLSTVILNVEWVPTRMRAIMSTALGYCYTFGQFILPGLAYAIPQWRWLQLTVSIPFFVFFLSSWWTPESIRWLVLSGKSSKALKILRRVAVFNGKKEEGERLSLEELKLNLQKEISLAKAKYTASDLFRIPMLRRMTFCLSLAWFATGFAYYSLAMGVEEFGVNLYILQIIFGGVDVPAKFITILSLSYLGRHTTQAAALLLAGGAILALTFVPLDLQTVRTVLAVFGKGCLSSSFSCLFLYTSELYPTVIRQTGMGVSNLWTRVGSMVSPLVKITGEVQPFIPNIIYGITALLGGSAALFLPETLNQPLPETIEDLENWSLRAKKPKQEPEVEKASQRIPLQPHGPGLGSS
Description: β-amanitin inhibition (IC50 values) of OCT1, OCT2, MATE2-K, OAT1, OAT3, Na^+/taurocholate co-transporting polypeptide (NTCP), OATP1B1, OATP1B3, P-glycoprotein (P-gp), and breast-cancer-resistant protein (BCRP) transport activities were assessed in HEK293 cells overexpressing individual transporters (TransportoCells™, Corning), LLC-PK1-P-gp (Corning), or LLC-PK1-BCRP (obtained from Dr. A.H. Schinkel, Netherlands Cancer Institute; Amsterdam, The Netherlands), as previously reported. Each incubation mixture was prepared to a final volume of 100 μL HBSS (pH 7.4) containing 0.1 μM probe substrates ([^3H]methyl-4-phenylpyridinium for OCT1 and OCT2, [^14C]metformin for MATE2-K, [^3H]p-aminohippuric acid for OAT1, [^3H]estrone-3-sulfate for OAT3, OATP1B1 and BCRP, [^3H]taurocholate for NTCP, [^3H]17-β-D-estradiol-glucuronide for OATP1B3, [^3H]digoxin for P-gp) and various concentrations of β-amanitin (0.01–250 μM), as previously described.

mice [1] = experiment: Death or toxicity observed during the toxicokinetic study; type: in vivo; settings: male ICR mice
Description: β-amanitin was dissolved in water and administered by iv bolus injection into the tail vein of mice at doses of 0.2 (n = 8), 0.4 (n = 6), and 0.8 (n = 7) mg/kg. Blood samples (approximately 15 μL) were collected from the retro-orbital plexus under light anesthesia with isoflurane at 0.033, 0.083, 0.25, 0.5, 0.75, 1, 1.5, 2, 3, 4, 6, and 8 h after drug administration.
β-amanitin was dissolved in water and administered to mice by gavage at doses of 2 (n = 7), 5 (n = 9), and 10 (n = 7) mg/kg. Blood samples (approximately 15 μL) were collected from the retro-orbital plexus under light anesthesia with isoflurane at 0.033, 0.083, 0.166, 0.25, 0.5, 0.75, 1, 1.5, 2, 4, 6, and 8 h after drug administration. Plasma samples (5 μL each) were harvested by centrifugation at 13,000× g for 3 min at 4 °C and stored at −80 °C until analysis.

[2] = LC-HRMS, cited from earlier work
Description: Concentrations of β-amanitin in biological samples were evaluated following our previous methodology. The standard calibration curves for β-amanitin in mouse plasma ranged from 0.5 to 500 ng/mL and were linear, with a correlation coefficient of 0.9952. The inter- and intra-day accuracy and precision fell within the acceptance criteria (3.1–14.6% of coefficients of variation (CVs) and 92.5–115.0% of accuracy). The extraction recovery and matrix effect of this analytical method were 82.8–88.9% and 93.0–98.6%. Three freeze–thaw cycles (88.7–97.2% accuracy with CVs of 3.6–14.3%), short-term ...

humans = settings: oral administration; cited from earlier work
Description: Amanita phalloides poisoning can cause acute hepatitis, leading to the rapid development of liver insufficiency and ultimately coma and death. Nephrotoxicity is reported less frequently. Yilmaz et al. reported that an oral intake of approximately 50 g of fresh Amanita phalloides, representing a dose of 0.32 mg/kg of amatoxins, can be lethal. A few reports are available that describe the toxicokinetics of α- and β-amanitin after the oral administration of toadstool extract to beagle dogs and rats. In addition, the toxicokinetics of α-amanitin were investi ... || The Amanitaceae family is responsible for nearly 95% of all fatal mushroom poisonings, and amatoxins are the primary threats to human life. The content of amatoxins varies by Amanita species, but α- and β-amanitin are the most abundant substances. […] Among amatoxins, α-amanitin i ...

[3] = mice, oral administration at doses of 2, 5, or 10 mg/kg; cited from earlier work
Description: Amanita phalloides poisoning can cause acute hepatitis, leading to the rapid development of liver insufficiency and ultimately coma and death. Nephrotoxicity is reported less frequently. Yilmaz et al. reported that an oral intake of approximately 50 g of fresh Amanita phalloides, representing a dose of 0.32 mg/kg of amatoxins, can be lethal. A few reports are available that describe the toxicokinetics of α- and β-amanitin after the oral administration of toadstool extract to beagle dogs and rats. In addition, the toxicokinetics of α-amanitin were investi ...

mice [4] = settings: intraperitoneal injection; cited from earlier work
Text: (§1) The Amanitaceae family is responsible for nearly 95% of all fatal mushroom poisonings, and amatoxins are the primary threats to human life. The content of amatoxins varies by Amanita species, but α- and β-amanitin are the most abundant substances. […] Among amatoxins, α-amanitin i ...

rats = settings: intraperitoneal injection; cited from earlier work
Text: as §1

CC[C@H](C)[C@@H]1NC(=O)CNC(=O)[C@@H]2Cc3c([nH]c4cc(O)ccc34)[S@+]([O-])C[C@H](NC(=O)CNC1=O)C(=O)N[C@@H](CC(=O)O)C(=O)N1C[C@H](O)C[C@H]1C(=O)N[C@@H]([C@@H](C)[C@@H](O)CO)C(=O)N2 [β-amanitin]
IC50 (OAT3): 37.4 µM | Death or serious toxicity after intravenous bolus administration (mice [1]; iv bolus via tail vein 0.2, 0.4 and 0.8 mg/kg): did not cause death or serious toxicity; also recorded: did not cause toxicity | Death or serious toxicity after oral administration (mice [1]; oral gavage 2, 5 and 10 mg/kg): did not cause death or serious toxicity; also recorded: did not cause toxicity | Stability, short-term storage for 2 h on ice (accuracy) ([2]; mouse plasma, CVs of 3.6–7.4%): 94.7–97.9% | Stability, three freeze–thaw cycles (accuracy) ([2]; mouse plasma, CVs of 3.6–14.3%): 88.7–97.2% | Stability, long-term storage for 2 weeks at −80 °C (accuracy) ([2]; mouse plasma, CVs of 3.7–9.1%): 90.4–105.0% | Post-preparation stability for 24 h in 4 °C autosampler (accuracy) ([2]; processed mouse plasma samples, CVs of 6.8–7.5%): 90.7–94.1%

α-amanitin [reference compound]
Lethal dose (humans): 0.1 mg/kg | Absolute bioavailability [3]: 3.5–4.8% | Lethal dose (mice [4]): 0.3 to 0.6 mg/kg | Lethal dose (rats): 4.0 mg/kg
